Assay [1] deals with T1, 5HT2A (Homo sapiens, UniProt P28223). As to the kind of experiment: Serotonin 5-HT2A in vitro cellular IPOne agonism assay. In kind it is cell-based. More on the design: host or cells: CHO-K1. As to the method: Serotonin 5-HT2A In Vitro Cellular IPOne Agonism Assay. The 5-HT2A IPOne HTRF assay was performed at Epics Therapeutics S.A. (Belgium, FAST-0505I) using conventional methods. Briefly, CHO-K1 cells expressing human recombinant 5-HT2A receptor grown to mid-log phase in culture media without antibiotics were detached with PBS-EDTA, centrifuged, and resuspended in medium without antibiotics buffer. 20,000 cells are distributed in a 96 well plate and incubated overnight at 37° C. with 5% CO2.
For agonist testing, the medium is removed and 20 μl of assay buffer plus 20 μl of test compound or reference agonist are added in each well. The plate is incubated for 60 min. at 37° C. with 5% CO2.
After addition of the lysis buffer containing IP1-d2 and anti-IP1 cryptate detection reagents, plates are incubated 1-hour at room temperature, and fluorescence ratios are measured according to the manufacturer specification, with the HTRF kit.
(§1) The compounds provided herein were tested in the Serotonin 5-HT2A and 5-HT2C in vitro radioligand binding and cellular IPOne agonism assays. The binding and agonism functional potencies of several compound provided herein compounds (as indicated by their IC50s or EC50s) are shown in Table 11.

Assay [2] addresses T1, 5HT2A. The assay is described as follows: Serotonin 5-HT2A in vitro radioligand binding competition assay ([3H]-DOI). The arrangement: purchased Epics Therapeutics S.A. (Belgium) FAST-0505B. As to the method:
Serotonin 5-HT2A In Vitro Radioligand Binding Competition Assay. The 5-HT2A radioligand binding competition assay was performed at Epics Therapeutics S.A. (Belgium, FAST-0505B) using conventional methods. Briefly, competition binding is performed in duplicate in the wells of a 96 well plate (Master Block, Greiner, 786201) containing binding buffer (optimized for each receptor), membrane extracts (amount of protein/well optimized for each receptor), radiotracer [^3H]-DOI (final concentration optimized for each receptor) and test compound. Nonspecific binding is determined by co-incubation with 200-fold excess of cold competitor. The samples are incubated in a final volume of 0.1 ml at a temperature and for a duration optimized for each receptor and then filtered over filter plates. Filters are washed six times with 0.5 ml of ice-cold washing buffer (optimized for each receptor) and 50 μl of Microscint 20 (Packard) are added in each well. The plates are incubated 15 min on an orbital shaker and then counted with a TopCount™ for 1 min/well.
as §1

Setting [3] is: CHO-K1 cells, IPOne HTRF, read-out: 5-HT2A IPOne Agonism Activity.
The mark [4] stands for this setting: [3H]-DOI competition, membrane extracts, read-out: 5-HT2A Radioligand Binding Activity.

Where two headings read alike, the source gives them in different places.

T1 sequence (P28223 whole entry): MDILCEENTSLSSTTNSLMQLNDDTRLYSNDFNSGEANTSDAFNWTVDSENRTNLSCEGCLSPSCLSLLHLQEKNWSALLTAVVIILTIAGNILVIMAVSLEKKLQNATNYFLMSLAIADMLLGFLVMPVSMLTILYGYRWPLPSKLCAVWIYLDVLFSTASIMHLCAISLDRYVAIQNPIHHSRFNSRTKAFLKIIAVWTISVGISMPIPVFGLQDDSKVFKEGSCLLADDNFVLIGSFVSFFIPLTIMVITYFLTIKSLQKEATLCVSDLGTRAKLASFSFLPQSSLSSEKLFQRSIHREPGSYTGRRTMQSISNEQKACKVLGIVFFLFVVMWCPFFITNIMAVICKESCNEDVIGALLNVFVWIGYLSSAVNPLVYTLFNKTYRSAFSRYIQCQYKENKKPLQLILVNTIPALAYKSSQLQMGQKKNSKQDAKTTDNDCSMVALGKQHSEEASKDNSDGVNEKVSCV

Turning to `C[C@H](C(=O)n1ccc2ccccc21)N(C)C` [Example 46, (R)-2-(dimethylamino)-1-(1H-indol-1-yl)propan-1-one], the EC50 in assay [1] is above 10 µM. This compound came in with an IC50 in assay [2] above 10 µM.

As to `COc1ncc2c(ccn2CC(C)(C)N(C)C)n1` [Example 23, 1-(2-methoxy-5H-pyrrolo[3,2-d]pyrimidin-5-yl)-N,N,2-trimethylpropan-2-amine], the EC50 in assay [1] (setting [3]) is above 10 µM. Besides, in assay [2] (setting [4]), the IC50 was above 10 µM.

Consider `CN(C)CC(=O)n1ccc2ccccc21` [Example 44, 2-(dimethylamino)-1-(1H-indol-1-yl)ethan-1-one], for which the EC50 in assay [1] (setting [3]) is above 10 µM. For the same compound, the IC50 in assay [2] (setting [4]) is above 10 µM.

In the case of `COc1ccc2c(c1)CCN(CCN(C)C)C2` [Example 11, 2-(6-methoxy-3,4-dihydroisoguinolin-2(1H)-yl)-N,N-dimethylethan-1-amine], the EC50 in assay [1] (setting [3]) was above 10 µM. Also, in assay [2] (setting [4]), the IC50 lay within 0.101 to 1 µM.

With `COc1cc2ccn(CC(C)(C)N(C)C)c2cn1` [Example 22, 1-(5-methoxy-1H-pyrrolo[2,3-c]pyridin-1-yl)-N,N,2-trimethylpropan-2-amine], the EC50 in assay [1] (setting [3]) is above 10 µM. Further, the IC50 in assay [2] (setting [4]) is above 10 µM.

Take `COc1cnc2c(ccn2C[C@@H](C)N)c1` [Example 34, (R)-1-(5-methoxy-1H-pyrrolo[2,3-b]pyridin-1-yl)propan-2-amine]: the EC50 in assay [1] (setting [3]) is 1 to 10 µM. In assay [2] (setting [4]), the IC50 was above 10 µM.

Regarding `CN(C)C(C)(C)Cn1ccc2c(F)cccc21` [Example 18, 1-(4-fluoro-1H-indol-1-yl)-N,N,2-trimethylpropan-2-amine], in assay [1] (setting [3]), the EC50 was above 10 µM. For the same compound, the IC50 in assay [2] (setting [4]) is above 10 µM.

On to `COc1ccc2c(c1)CN(CCN(C)C)C2` [Example 10, 2-(5-methoxyisoindolin-2-yl)-N,N-dimethylethan-1-amine], for which the EC50 in assay [1] (setting [3]) is above 10 µM. The IC50 in assay [2] (setting [4]) is 1 to 10 µM.

Consider `C[C@H](C(=O)n1ccc2cc(F)ccc21)N(C)C` [Example 48, (R)-2-(dimethylamino)-1-(5-fluoro-1H-indol-1-yl)propan-1-one], for which, in assay [1], the EC50 was above 10 µM. In addition, in assay [2], the IC50 is above 10 µM.

On to `COc1cc2ccn(CC(C)(C)N(C)C)c2cc1F` [Example 16, 1-(6-fluoro-5-methoxy-1H-indol-1-yl)-N,N,2-trimethylpropan-2-amine], for which the EC50 in assay [1] (setting [3]) was above 10 µM. Also, the IC50 in assay [2] (setting [4]) is above 10 µM.

As for `CN(C)CC(=O)n1ccc2cc(F)ccc21` [Example 43, 2-(dimethylamino)-1-(5-fluoro-1H-indol-1-yl)ethan-1-one], in assay [1] (setting [3]), the EC50 is above 10 µM. Also, the IC50 in assay [2] (setting [4]) is above 10 µM.

For `COc1ccc2c(ccn2CC(C)(C)N(C)C)c1F` [Example 15, 1-(4-fluoro-5-methoxy-1H-indol-1-yl)-N,N,2-trimethylpropan-2-amine], in assay [1] (setting [3]), the EC50 was above 10 µM. For the same compound, the IC50 in assay [2] (setting [4]) was above 10 µM.

Consider `CC(C)(N)Cn1ccc2c(F)c(F)ccc21` [Example 41, 1-(4,5-difluoro-1H-indol-1-yl)-2-methylpropan-2-amine], for which the EC50 in assay [1] (setting [3]) was 1 to 10 µM. The IC50 in assay [2] (setting [4]) lay within 1 to 10 µM.

On to `CN(C)C(C)(C)Cn1ccc2c(F)c(F)ccc21` [Example 12, 1-(4,5-difluoro-1H-indol-1-yl)-N,N,2-trimethylpropan-2-amine], for which, in assay [1] (setting [3]), the EC50 is above 10 µM. In addition, in assay [2] (setting [4]), the IC50 is above 10 µM.

Regarding `COc1ccc2c(ccn2CC(C)(C)N)c1` [Example 42, 1-(5-methoxy-1H-indol-1-yl)-2-methylpropan-2-amine], the EC50 in assay [1] (setting [3]) is 1 to 10 µM. The IC50 in assay [2] (setting [4]) was above 10 µM.

In the case of `C[C@@H](N)Cn1ccc2cncnc21` [Example 26, (R)-1-(7H-pyrrolo[2,3-d]pyrimidin-7-yl)propan-2-amine], the EC50 in assay [1] (setting [3]) was 1 to 10 µM. For the same compound, in assay [2] (setting [4]), the IC50 is above 10 µM.

In the case of `CN[C@H](C)Cn1ccc2cnccc21` [Example 38, (R)—N-methyl-1-(1H-pyrrolo[3,2-c]pyridin-1-yl)propan-2-amine], in assay [1] (setting [3]), the EC50 was above 10 µM. The IC50 in assay [2] (setting [4]) was above 10 µM.

Consider `CN[C@H](C)Cn1ccc2cc(OC)cnc21` [Example 35, (R)-1-(5-methoxy-1H-pyrrolo[2,3-b]pyridin-1-yl)-N-methylpropan-2-amine], for which the EC50 in assay [1] (setting [3]) was above 10 µM. The IC50 in assay [2] (setting [4]) is above 10 µM.

Regarding `Cc1cn(CC(C)(C)N)c2ccc(F)cc12` [Example 40, 1-(5-fluoro-3-methyl-1H-indol-1-yl)-2-methylpropan-2-amine], the EC50 in assay [1] (setting [3]) was in the range of 1 to 10 µM. In assay [2] (setting [4]), the IC50 lay within 1 to 10 µM.

`CN(C)C(C)(C)Cn1ccc2cccc(F)c21` [Example 20, 1-(7-fluoro-1H-indol-1-yl)-N,N,2-trimethylpropan-2-amine]: the EC50 in assay [1] (setting [3]) was above 10 µM. Also, the IC50 in assay [2] (setting [4]) was above 10 µM.

In the case of `CN(C)C(C)(C)Cn1ccc2cc(F)ccc21` [Example 14, 1-(5-fluoro-1H-indol-1-yl)-N,N,2-trimethylpropan-2-amine], the EC50 in assay [1] (setting [3]) was above 10 µM. Further, the IC50 in assay [2] (setting [4]) was above 10 µM.

Take `C[C@@H](N)Cn1ccc2cnccc21` [Example 37, (R)-1-(1H-pyrrolo[3,2-c]pyridin-1-yl)propan-2-amine]: the EC50 in assay [1] (setting [3]) was above 10 µM. Further, in assay [2] (setting [4]), the IC50 is above 10 µM.

On to `COc1cc(F)c2c(ccn2CC(C)(C)N(C)C)c1` [Example 17, 1-(7-fluoro-5-methoxy-1H-indol-1-yl)-N,N,2-trimethylpropan-2-amine], for which, in assay [1] (setting [3]), the EC50 is above 10 µM. Also, the IC50 in assay [2] (setting [4]) is above 10 µM.

As for `CN(C)C(C)(C)Cn1ccc2ccc(F)cc21` [Example 19, 1-(6-fluoro-1H-indol-1-yl)-N,N,2-trimethylpropan-2-amine], the EC50 in assay [1] (setting [3]) is above 10 µM. The IC50 in assay [2] (setting [4]) was above 10 µM.

For the compound `COc1ccc2c(ccn2CC(C)(C)N(C)C)n1` [Example 21, 1-(5-methoxy-1H-pyrrolo[3,2-b]pyridin-1-yl)-N,N,2-trimethylpropan-2-amine], the EC50 in assay [1] (setting [3]) was above 10 µM. The IC50 in assay [2] (setting [4]) is above 10 µM.

`Cc1cn(CC(C)(C)N(C)C)c2ccc(F)cc12` [Example 13, 1-(5-fluoro-3-methyl-1H-indol-1-yl)-N,N,2-trimethylpropan-2-amine]: the EC50 in assay [1] (setting [3]) is 1 to 10 µM. The IC50 in assay [2] (setting [4]) was above 10 µM.

These data come from patent US20230219969A1 (priority 2020, published 2023).
